Results taken from patent publication US11236106B2, “Cycloalkane-1,3-diamine derivative” (Daiichi Sankyo Company, Limited, priority 2018, dated 2022).
Where a name gives a salt, the structure may show the parent alone.

Biological target: T1, menin and MLL (menin, Flag tagged; biotinylated MLL1 peptide 1-46aa) (Homo sapiens, UniProt O00255)
T1 sequence (O00255 1-610): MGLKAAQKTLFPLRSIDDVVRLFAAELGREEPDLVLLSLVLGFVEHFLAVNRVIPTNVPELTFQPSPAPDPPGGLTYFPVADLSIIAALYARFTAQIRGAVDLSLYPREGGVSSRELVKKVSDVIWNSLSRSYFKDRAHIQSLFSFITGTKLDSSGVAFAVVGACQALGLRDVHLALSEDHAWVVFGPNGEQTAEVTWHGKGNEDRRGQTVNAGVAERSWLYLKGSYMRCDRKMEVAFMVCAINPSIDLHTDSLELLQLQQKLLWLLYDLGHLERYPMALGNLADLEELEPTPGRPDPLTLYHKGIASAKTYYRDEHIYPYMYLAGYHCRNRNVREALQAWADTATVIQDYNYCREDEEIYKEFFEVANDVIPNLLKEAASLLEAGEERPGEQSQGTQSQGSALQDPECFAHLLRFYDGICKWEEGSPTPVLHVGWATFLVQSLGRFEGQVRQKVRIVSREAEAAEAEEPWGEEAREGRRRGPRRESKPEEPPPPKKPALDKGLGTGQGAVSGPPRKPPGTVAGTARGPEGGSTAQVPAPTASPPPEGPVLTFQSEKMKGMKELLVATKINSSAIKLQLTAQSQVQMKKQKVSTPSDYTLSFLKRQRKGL
Experiment: biochemical
Details: not given

`COc1cc(-c2ccc(CN[C@H]3C[C@@H](O)[C@@H](N(C)c4ncnc5sc(CC(F)(F)F)cc45)C3)cc2)nnc1OC1CCCOC1` (mixture of isomers) [Example 108, (1R,2S,4R)-4-{[(4-{5-methoxy-6-[(oxan-3-yl)oxy]pyridazin-3-yl}phenyl)methyl]amino}-2-{methyl[6-(2,2,2-trifluoroethyl)thieno[2,3-d]pyrimidin-4-yl]amino}cyclopentan-1-ol hydrochloride] showed an IC50 of 1.3 nM.

Same assay, conditions: IC50, binding inhibitory activity between menin and MLL, AlphaLISA; 1 nM menin, 10 nM biotinylated MLL1 peptide

First: CN(c1ncnc2sc(CC(F)(F)F)cc12)[C@H]1C[C@@H](NCc2ccc(-c3cncc4c3cnn4C)cc2)C[C@H]1O [Example 72, (1R,2S,4R)-4-({[4-(1-methyl-1H-pyrazolo[3,4-c]pyridin-4-yl)phenyl]methyl}amino)-2-{methyl[6-(2,2,2-trifluoroethyl)thieno[2,3-d]pyrimidin-4-yl]amino}cyclopentan-1-ol hydrochloride]
Second: COc1cncc(-c2ccc(CN[C@H]3C[C@@H](O)[C@@H](N(C)c4ncnc5sc(CC(F)(F)F)cc45)C3)cc2)c1 [Example 129, (1R,2S,4R)-4-({[4-(5-methoxypyridin-3-yl)phenyl]methyl}amino)-2-{methyl[6-(2,2,2-trifluoroethyl)thieno[2,3-d]pyrimidin-4-yl]amino}cyclopentan-1-ol Hydrochloride]
The IC50 of the first is 1.9-fold higher: 10.7 nM for the first, 5.5 nM for the second.

First: COc1nc(N(C)[C@H]2C[C@@H](NCc3ccc(-c4nnc(OC(F)F)cc4OC)cc3)C[C@H]2O)c2cc(CC(F)(F)F)sc2n1 [Example 110, (1R,2S,4R)-4-[({4-[6-(difluoromethoxy)-4-methoxypyridazin-3-yl]phenyl}methyl)amino]-2-{[2-methoxy-6-(2,2,2-trifluoroethyl)thieno[2,3-d]pyrimidin-4-yl](methyl)amino}cyclopentan-1-ol hydrochloride]
Second: COc1cnc(-c2ccc(CN[C@H]3C[C@@H](O)[C@@H](N(C)c4ncnc5sc(CC(F)(F)F)cc45)C3)cc2)nc1OC [Example 97, (1R,2S,4R)-4-({[4-(4,5-dimethoxypyrimidin-2-yl)phenyl]methyl}amino)-2-{methyl[6-(2,2,2-trifluoroethyl)thieno[2,3-d]pyrimidin-4-yl]amino}cyclopentan-1-ol hydrochloride]
The IC50 of the first is 1.9-fold lower: 2.1 nM for the first, 3.9 nM for the second.

Compared with `COc1cc(-c2cnc(OC)c(OC)c2)ccc1CN[C@H]1C[C@@H](O)[C@@H](N(C)c2ncnc3sc(CC(F)(F)F)cc23)C1` [Example 77, (1R,2S,4R)-4-({[4-(5,6-dimethoxypyridin-3-yl)-2-methoxyphenyl]methyl}amino)-2-{methyl[6-(2,2,2-trifluoroethyl)thieno[2,3-d]pyrimidin-4-yl]amino}cyclopentan-1-ol hydrochloride], `COc1cc(-c2ccc(CN[C@H]3CC[C@@H](N(C)c4ncnc5sc(CC(F)(F)F)cc45)C3)cc2)nnc1OC` [Example 95, (1R,3S)-N^3-{[4-(5,6-dimethoxypyridazin-3-yl)phenyl]methyl}-N^1-methyl-N^1-[6-(2,2,2-(trifluoroethyl)thieno[2,3-d]pyrimidin-4-yl]cyclopentane-1,3-diamine hydrochloride] is 8.7-fold lower in IC50: 10.4 nM for the first, 1.2 nM for the second. The second is the more potent here.

Going from `CN(c1ncnc2sc(CC(F)(F)F)cc12)[C@H]1C[C@@H](NCc2ccc(-c3cccc(N(C)S(C)(=O)=O)c3)cc2)C[C@H]1O` [Example 71, N-[4′-({[(1R,3R,4S)-3-hydroxy-4-{methyl[6-(2,2,2-trifluoroethyl)thieno[2,3-d]pyrimidin-4-yl]amino}cyclopentyl]amino}methyl)[1,1′-biphenyl]-3-yl]-N-methylmethanesulfonamide hydrochloride] to `CN(c1ncnc2sc(CC(F)(F)F)cc12)[C@H]1C[C@@H](NCc2ccc(-c3cccc(CS(C)(=O)=O)c3)cc2)C[C@H]1O` [Example 86, (1R,2S,4R)-4-[({3′-[(methanesulfonyl)methyl][1,1′biphenyl]-4-yl}methyl)amino]-2-{methyl[6-(2,2,2 trifluoroethyl)thieno[2,3-d]pyrimidin-4-yl]amino}cyclopentan-1-ol hydrochloride], the IC50 rises from 0.6 nM to 20.9 nM (35-fold). The first is the more potent here.

Compared with `CNc1nc(N(C)[C@H]2C[C@@H](NCc3ccc(-c4ccc(F)c(OC)c4F)cc3)C[C@H]2O)c2cc(CC(F)(F)F)sc2n1` [Example 87, (1R,2S,4R)-4-{[(2′,4′-difluoro-3′-methoxy[1,1′-biphenyl]-4-yl)methyl]amino}-2-{methyl[2-(methylamino)-6-(2,2,2-trifluoroethyl)thieno[2,3-d]pyrimidin-4-yl]amino}cyclopentan-1-ol hydrochloride], `COc1nc(N(C)[C@H]2C[C@@H](NCC3CCN(c4cc(OC)c(OC)nn4)CC3)C[C@H]2O)c2cc(CC(F)(F)F)sc2n1` [Example 115, (1R,2S,4R)-4-({[1-(5,6-dimethoxypyridazin-3-yl)piperidin-4-yl]methyl}amino)-2-{[2-methoxy-6-(2,2,2-trifluoroethyl)thieno[2,3-d]pyrimidin-4-yl](methyl)amino}cyclopentan-1-ol hydrochloride] is 1.7-fold higher in IC50: 6.6 nM for the first, 10.9 nM for the second. The first is the more potent here.

Same assay, conditions: cell free IC50 (nM), 1 nM menin, 10 nM biotinylated MLL1 peptide, AlphaLISA

Compared with `COc1cncc(-c2ccc(CN[C@H]3CC[C@@H](N(C)c4ncnc5sc(CC6CC6)cc45)C3)cc2)c1` [Example 9, (1R,3S)—N^1-[6-(cyclopropylmethyl)thieno[2,3-d]pyrimidin-4-yl]-N^3-{[4-(5-methoxypyridin-3-yl)phenyl]methyl}-N^1-methylcyclopentane-1,3-diamine Hydrochloride], `COc1cncc(-c2ccc(CN[C@H]3CC[C@@H](N(C)c4ncnc5sc(C6CC6)cc45)C3)cc2)c1` [Example 45, (1R,3S)-N^1-(6-cyclopropylthieno[2,3-d]pyrimidin-4-yl)-N^3-{[4-(5-methoxypyridin-3-yl)phenyl]methyl}-N^1-methylcyclopentane-1,3-diamine hydrochloride] is 1.5-fold higher in IC50: 22.2 nM for the first, 33.3 nM for the second.

First: CN(c1ncnc2sc(CC(F)(F)F)cc12)[C@@H]1CC[C@H](NCc2ccc(-c3ccc(-c4ccc(Cl)nc4)nc3)cc2)C1 [Example 13, (1R,3S)—N^3-{[4-(6′-chloro[2,3′-bipyridine]-5-yl)phenyl]methyl}-N^1-methyl-N^1-[6-(2,2,2-trifluoroethyl)thieno[2,3-d]pyrimidin-4-yl]cyclopentane-1,3-diamine]
Second: CN(c1ncnc2sc(CC(F)(F)F)cc12)[C@@H]1CC[C@H](NCc2ccc(S(=O)(=O)c3ccccc3)cc2)C1 [Example 53, (1R,3S)N^3-{[4-(benzenesulfonyl)phenyl]methyl}N^1-methyl-N^1-[6-(2,2,2-trifluoroethyl)thieno[2,3-d]pyrimidin-4-yl]cyclopentane-1,3-diamine hydrochloride]
The IC50 of the first is 2.3-fold lower: 7.6 nM for the first, 17.7 nM for the second. The first is the more potent here.

Going from `COc1cncc(-c2ccc(CN[C@@H]3C[C@H](N(C)c4ncnc5sc(CC(F)(F)F)cc45)[C@H](O)[C@@H]3O)cc2)c1` [Example 20A, (1S,2R,3R,5S)-3-({[4-(5-methoxypyridin-3-yl)phenyl]methyl}amino)-5-{methyl[6-(2,2,2-trifluoroethyl)thieno[2,3-d]pyrimidin-4-yl]amino}cyclopentane-1,2-diol Hydrochloride] to `COc1cncc(Nc2ccc(CN[C@H]3CC[C@@H](N(C)c4ncnc5sc(CC(F)(F)F)cc45)C3)cc2)c1` [Example 8, (1R,3S)—N^3-({4-[(5-methoxypyridin-3-yl)amino]phenyl}methyl)-N^1-methyl-N^1-[6-(2,2,2-trifluoroethyl)thieno[2,3-d]pyrimidin-4-yl]cyclopentane-1,3-diamine Hydrochloride], the IC50 rises from 3.9 nM to 8.8 nM (2.3-fold). The first is the more potent here.

First: CN(c1ncnc2sc(CC(F)(F)F)cc12)[C@@H]1CC[C@H](NCc2ccc(OCCO)c(F)c2)C1 [Example 31, 2-[2-fluoro-4-({[(1S,3R)-3-{methyl[6-(2,2,2-trifluoroethyl)thieno[2,3-d]pyrimidin-4-yl]amino}cyclopentyl]amino}methyl)phenoxy]ethan-1-ol hydrochloride]
Second: Cc1c(CN[C@H]2CC[C@@H](N(C)c3ncnc4sc(CC(F)(F)F)cc34)C2)ccc2c1cc(C#N)n2Cc1cn[nH]c1 [Example 2, 4-methyl-5-({[(1S,3R)-3-{methyl[6-(2,2,2-trifluoroethyl)thieno[2,3-d]pyrimidin-4-yl]amino}cyclopentyl]amino}methyl)-1-[(1H-pyrazol-4-yl)methyl]-1H-indole-2-carbonitrile Hydrochloride]
The IC50 of the first is 3.6-fold higher: 46.4 nM for the first, 12.8 nM for the second.

`CN(c1nc(N)nc2sc(CC(F)(F)F)cc12)[C@H]1C[C@@H](NCc2ccc(-n3ccnc3)cc2)C[C@H]1O` [Example 21, (1R,2S,4R)-2-{[2-amino-6-(2,2,2-trifluoroethyl)thieno[2,3-d]pyrimidin-4-yl](methyl)amino}-4-({[4-(1H-imidazol-1-yl)phenyl]methyl}amino)cyclopentan-1-ol Hydrochloride] and `C=CC(=O)Nc1cccc(Nc2ccc(CN[C@H]3CC[C@@H](N(C)c4nc(NC)nc5sc(CC(F)(F)F)cc45)C3)cc2)c1` [Example 55, N-{3-[4-({[(1S,3R)-3{methyl[2-(methylamino)-6-(2,2,2-trifluoroethyl)thieno[2,3-d]pyrimidin-4-yl]amino}cyclopentyl]amino}methyl)anilino]phenyl}prop-2-enamide hydrochloride] are within 1.5-fold of each other in IC50: 7 nM for the first, 9.8 nM for the second.
